Source: the CheMixHub viscosity set

Experiment: xn = mol fraction of the nth substance listed

C1CCOC1 + Cc1ccccc1
303.15 K, 101.33 kPa
Conditions	viscosity [mPa·s]
x1 = 0.1014	0.52
x1 = 0.1984	0.518
x1 = 0.3066	0.512
x1 = 0.3662	0.51
x1 = 0.4984	0.499
x1 = 0.5997	0.489
x1 = 0.702	0.479
x1 = 0.7981	0.467
x1 = 0.8997	0.453

c1ccc2ccccc2c1 + ClC(Cl)(Cl)Cl
viscosity [mPa·s], 101 kPa
Conditions	303.15 K	308.15 K	313.15 K	318.15 K	323.15 K
x1 = 0.2515	1.085	1	0.9335	0.8708	0.8138
x1 = 0.4038	–	–	1.109	1.036	0.9672

COc1ccccc1 + ClCCCl
viscosity [mPa·s]
Conditions	298.15 K	303.15 K	308.15 K	313.15 K
101 kPa, x1 = 0.0971	0.8095	0.7615	0.7135	0.6712
101 kPa, x1 = 0.1961	0.8125	0.7644	0.719	0.6736
101 kPa, x1 = 0.2958	0.8228	0.7712	0.7246	0.6785
101 kPa, x1 = 0.3963	0.8354	0.7823	0.7333	0.6881
101 kPa, x1 = 0.4918	0.8519	0.7983	0.7466	0.7004
101 kPa, x1 = 0.5946	0.8754	0.8183	0.7639	0.715
101 kPa, x1 = 0.6933	0.9012	0.8399	0.7821	0.7319
101 kPa, x1 = 0.7944	0.9299	0.8693	0.8076	0.7519
101 kPa, x1 = 0.8972	0.9672	0.8983	0.834	0.7759
101.3 kPa, x1 = 0.0479	–	0.708	–	–
101.3 kPa, x1 = 0.2944	–	0.726	–	–
101.3 kPa, x1 = 0.3833	–	0.74	–	–
101.3 kPa, x1 = 0.5479	–	0.776	–	–
101.3 kPa, x1 = 0.6192	–	0.785	–	–
101.3 kPa, x1 = 0.6717	–	0.797	–	–
101.3 kPa, x1 = 0.9751	–	0.896	–	–

c1ccc2ccccc2c1 + Clc1ccccc1
viscosity [mPa·s], 101 kPa
Conditions	308.15 K	313.15 K	318.15 K	323.15 K
x1 = 0.3525	0.962	0.9041	0.8436	0.7981
x1 = 0.4003	1.011	0.945	0.887	0.832

c1ccc2ccccc2c1 + Nc1ccccc1
viscosity [mPa·s]
Conditions	308.15 K	313.15 K	318.15 K	323.15 K
101 kPa, x1 = 0.2092	2.365	2.092	1.868	1.687
101 kPa, x1 = 0.3036	2.224	1.988	1.783	1.616
101.33 kPa, x1 = 0.209	2.365	2.092	1.868	1.687
101.33 kPa, x1 = 0.2092	2.365	–	–	–
101.33 kPa, x1 = 0.2497	2.291	–	–	–
101.33 kPa, x1 = 0.3	2.224	1.988	1.783	1.616
101.33 kPa, x1 = 0.3036	2.224	–	–	–

CC(=O)C(=O)[O-].[Na+] + O
viscosity [mPa·s], 101 kPa
Conditions	x1 = 0.00036	x1 = 0.000648	x1 = 0.000936	x1 = 0.00137	x1 = 0.00151	x1 = 0.0018
298.15 K	0.8972	0.9038	0.9104	0.9173	0.9206	0.9267
303.15 K	0.8044	0.811	0.8176	0.826	0.8308	0.8369
308.15 K	0.7257	0.7308	0.7375	0.7474	0.7507	0.7569
313.15 K	0.6602	0.6669	0.6735	0.682	0.6868	0.6931

CC(C)CC(=O)O + O
viscosity [mPa·s], 101.33 kPa
Conditions	293.15 K	313.15 K
x1 = 0.0036	1.106	0.724
x1 = 0.0073	1.161	0.742

CC1COC(=O)O1 (stereo unspecified) + O
298.15 K, 101 kPa
Conditions	viscosity [mPa·s]
x1 = 0.0025	0.9114
x1 = 0.005	0.9267
x1 = 0.01	0.959
x1 = 0.02	1.028
x1 = 0.025	1.064
x1 = 0.0307	1.099

CCC(N)(CO)CO + O
viscosity [mPa·s], 101.33 kPa
Conditions	x1 = 0.0364	x1 = 0.0916	x1 = 0.185	x1 = 0.261	x1 = 0.377
303.15 K	1.765	4.993	21.96	56.54	199.2
313.15 K	1.356	3.435	12.89	30.13	85.62
323.15 K	1.053	2.504	8.22	17.36	44.4
